Values quoted from earlier work in patent publication US12318461B2, “Salicylic acid gel” (Vantage Specialty Ingredients, Inc., priority 2012, dated 2025).

For O=C(O)c1ccccc1O [Salicylic acid, 2-hydroxybenzenecarboxylic acid], the solubility in water is listed as “poorly soluble”.
